Reference: patent EP2992880A1, “Use of heme oxygenase 1 inducers and cannabinoid 2 receptor or delta-opioid receptor agonists in inflammatory pain” (Fundació Institut de Recerca de l'Hospital de la Santa Creu …, priority 2014, dated 2016)

Legend:
[1] = inflammatory pain; cited from earlier work
[2] = visceral pain; cited from earlier work
DOR = experiment: Western blot of DOR protein in dorsal root ganglia of CFA-injected mice; format: in vivo; conditions: CoPP treatment of CFA-injected mice; P < 0.001 (Fig. 7)
Protocol: Animals were sacrificed at 0 days (naive) and after CFA-injection by cervical dislocation. Tissues from the ipsilateral section of the dorsal root ganglia (L3 to L5) were removed immediately after killing, frozen in liquid nitrogen, and stored at -80°C until assay. Samples from five animals were pooled into one experimental sample to obtain enough protein levels for performing Western blot analysis. The HO-1, DOR and CB2R protein levels were analyzed by Western blot. […]
The proteins were electrophoretically transferred onto PVDF membrane for 120 min, blocked with PBS + 5% nonfat dry milk, and subsequently incubated overnight at 4°C with polyclonal rabbit anti-HO-1 (1:300, Stressgen, Ann Arbor, MI), anti-DOR (1:2500, Chemicon-Millipore) or anti-CB2R (1:500, Abcam, Cambridge, United Kingdom). The proteins were detected by a horseradish peroxidase-conjugated anti-rabbit secondary antibody (GE Healthcare, Little Chalfont, Buckinghamshire, United Kingdom) and visualized with chemiluminescence reagents (ECL kit; GE Healthcare) and by exposure onto hyperfilm (GE Healthcare). The intensity of blots was quantified by densitometry. […]
Finally, in another set of experiments we evaluated the effects of CoPP on the expression of HO-1, DOR and CB2R in the ipsilateral site of the dorsal root ganglia from CFA-injected mice, by using Western blot assay. […]

CFA-injected mice = experiment: von Frey filaments test (mechanical allodynia) in CFA-induced chronic inflammatory pain; format: in vivo, male C57BL/6 mice
Protocol: The experiments were performed in male C57BL/6 mice acquired from Harlan Laboratories (Barcelona, Spain). All mice weighing 21 to 25 g were housed under 12-h/12-h light/ dark conditions in a room with controlled temperature (22° C) and humidity (66%). Animals had free access to food and water and were used after a minimum of 7 days acclimatization to the housing conditions. All experiments were performed according with the Guide for the Care and Use of Laboratory Animals as adopted and promulgated by the U.S. National Institutes of Health and approved by the local Committee of Animal Use and Care of the Autonomous University of Barcelona. All efforts were made to minimize animal suffering and to reduce the number of animals used.
Chronic inflammatory pain was induced by the subplantar injection of 30 µl of CFA (Sigma) into the right hind paw under brief anesthetic conditions with isoflurane according to previous works (Leánez et al., Eur J Pharmacol, 2009, 602:41-49; Hervera et al., Naunyn Schmiedebergs Arch Pharmacol, 2009, 380:345-352). All experiments were performed at 10 days after CFA injection. At this time point, all of these animals developed a local inflammatory reaction, allodynia to mechanical stimuli and hyperalgesia to noxious thermal stimuli, as previously reported (Negrete et al., PLoS One, 2011, 6:e26688). The development of mechanical allodynia and thermal hyperalgesia was evaluated by using the von Frey filaments and plantar tests, respectively. All animals were tested in each paradigm before and at 10 days after CFA-injection.
Mechanical allodynia was quantified by measuring the hind paw withdrawal response to von Frey filament stimulation. In brief, animals were placed in methacrylate cylinders (20 cm high, 9 cm diameter; Servei Estació, Barcelona, Spain) with a wire grid bottom through which the von Frey filaments (North Coast Medical, Inc., San Jose, CA) with a bending force in the range of 0.008-3.5 g were applied by using a modified version of the up-down paradigm, as previously reported by Chaplan et al. (J Neurosci Methods, 1994, 53:55-63). The filament of 0.4 g was used first and the 3.0 g filament was used as a cut-off. Then, the strength of the next filament was decreased or increased according to the response. The threshold of response was calculated from the sequence of filament strength used during the up-down procedure by using an Excel program (Microsoft Iberia SRL, Barcelona, Spain) that includes curve fitting of the data. Clear paw withdrawal, shaking, or licking of the paw was considered as a nociceptive-like response. Both ipsilateral and contralateral hind paws were tested. Animals were allowed to habituate for 1 h before testing in order to allow an appropriate behavioral immobility.
In a first set of experiments, we assessed the expression of inflammatory pain induced by the subplantar administration of CFA as previously used (Leánez et al., Eur J Pharmacol, 2009, 602:41-49). After the habituation period, baseline responses were established in the following sequence: von Frey filaments and plantar test. After baseline measurements, inflammatory pain was induced and animals were again tested in each paradigm at day 10 after CFA injection by using the same sequence as for baseline responses. The contralateral paws were used as controls (n = 6 animals per group).
In a second set of experiments, we evaluated the mechanical antiallodynic and thermal antihyperalgesic effects of the subplantar administration of different doses of a specific DOR (DPDPE) or CB2R (JWH-015) agonist and their respective vehicles in the contralateral and ipsilateral paw of CFA-injected animals (n = 6 animals per group). […]

In the case of “cobalt (III) protoporphyrin IX chloride [CoPP]”, the “effect of CoPP on the antinociceptive effect of morphine” value [1] is listed as “increases”, the “effect of CoPP on the antinociceptive effect of morphine treatment” value [2] is listed as “does not alter” and the “decreased protein levels of DOR in the dorsal root ganglia from CFA-injected mice” value (DOR) is listed as “avoided”. The “effect of CoPP treatment on the mechanical antiallodynic effects of DPDPE” value (CFA-injected mice; CoPP 10 mg/kg intraperitoneal, DPDPE 50 µg subplantar (Fig. 3A)) was “did not alter”, the “effect of CoPP treatment on the antiallodynic effects of JWH-015” value (CFA-injected mice; CoPP 10 mg/kg intraperitoneal, JWH-015 30 µg subplantar, P < 0.001 (Fig. 4A)) was “significantly enhanced” and the “mechanical allodynia induced by peripheral inflammation” value (CFA-injected mice; CoPP alone 10 mg/kg intraperitoneal, ipsilateral paw, P < 0.001 versus vehicle (Fig. 3A)) was “significantly attenuated”. For the same substance, the “Mechanical allodynia, Experimental results (%) (maximal possible effect)” value (CFA-injected mice; Table 5, ipsilateral paw, CoPP 10 mg/kg intraperitoneal, DPDPE 50 µg subplantar, vehicle 5.8) was 27.1% and the “Mechanical allodynia, Experimental results (%) (maximal possible effect)” value (CFA-injected mice; Table 6, ipsilateral paw, CoPP 10 mg/kg intraperitoneal, JWH-015 30 µg subplantar, vehicle 4.1) was 25.3%.
